Results published in patent publication US10556888B2, “Pyrazole compounds or salts thereof, preparation methods therefor, herbicidal compositions and use thereof” (QINGDAO KINGAGROOT CHEMICAL COMPOUNDS CO., LTD, priority 2015, dated 2020).

Legend:
Type in all cases: in vivo
[1] = tested on: Monocotyledonous and dicotyledonous weed; test: Post-emergence test experiment, weed control effect (Table 2); design: key to weed control effect, Setaria viridis (level) / weed control effect, Rorippa indica (level) / weed control effect, Abutilon theophrasti (level) / weed control effect, Echinochloa crus-galli (level) / weed control effect, Digitaria sanguinalis (level): Level 10: completely dead; Level 9: above 90% growth inhibition rate; Level 8: above 80% growth inhibition rate; Level 7: above 70% growth inhibition rate; Level 6: above 60% growth inhibition rate; Level 5: above 50% growth inhibition rate; Level 4: above 30% growth inhibition rate; Level 3: above 20% growth inhibition rate; Level 2: above 10% growth inhibition rate; Level 1: above 1-10% growth inhibition rate; Level 0: no effect; conditions: 3 weeks after spraying, greenhouse
In short: (§1)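 Weed and crop seeds (wheat, corn, rice, soybean, cotton, oilseed, millet, sorghum) grown in soil in greenhouse; sprayed at 2-3 leaf stage, 2-3 weeks after sowing, with compound in acetone/Tween 80/water. Effects assessed after 3 weeks further greenhouse culture.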

[2] = tested on: main crop (wheat, corn, rice, soybean, cotton, oilseed, millet and sorghum); test: Post-emergence test experiment, main crops (Table 2); design: key: Level 10: completely dead; Level 9: above 90% growth inhibition rate; Level 8: above 80% growth inhibition rate; Level 7: above 70% growth inhibition rate; Level 6: above 60% growth inhibition rate; Level 5: above 50% growth inhibition rate; Level 4: above 30% growth inhibition rate; Level 3: above 20% growth inhibition rate; Level 2: above 10% growth inhibition rate; Level 1: above 1-10% growth inhibition rate; Level 0: no effect; conditions: 3 weeks after spraying, greenhouse
In short: as §1

[3] = tested on: Echinochloa crus-galli; test: Weed control effect evaluation in transplanted rice field; design: key: Level 10: completely dead; Level 9: above 90% growth inhibition rate; Level 8: above 80% growth inhibition rate; Level 7: above 70% growth inhibition rate; Level 6: above 60% growth inhibition rate; Level 5: above 50% growth inhibition rate; Level 4: above 30% growth inhibition rate; Level 3: above 20% growth inhibition rate; Level 2: above 10% growth inhibition rate; Level 1: above 1-10% growth inhibition rate; Level 0: no effect; conditions: transplanted rice field pot test, application rate 60 g/ha, 14 days after treatment
Protocol: (§2) Rice field soil was loaded into a 1/1,000,000 ha pot. The seeds of Echinochloa, Scirpus juncoides, Bidens tripartite and Sagittaria trifolia were sowed and gently covered with soil, then left to stand still in greenhouse in the state of 0.5-1 cm of water storage. The tuber of Sagittaria trifolia was planted in the next day or 2 days later. It was kept at 3-4 cm of water storage thereafter. The weeds were treated by dripping the WP or SC water diluents prepared according to the common preparation method of the compounds of the present invention with pipette homogeneously to achieve specified effective amount when Echinochloa, Scirpus juncoides and Bidens tripartite reached 0.5 leaf stage and Sagittaria trifolia reached the time point of primary leaf stage.
(§3) The fertility condition of Echinochloa, Scirpus juncoides, Bidens tripartite and Sagittaria trifolia 14 days after the treatment of the compound of the invention and the fertility condition of rice 21 days after the treatment of the compound of the invention respectively with the naked eye.
(§4) The seeds of Echinochloa crus-galli, Scirpus juncoides and Monochoria vaginalis were collected from Heilongjing and Jiangsu Province of China.

[4] = tested on: Monochoria vaginalis; test: as above; design: key: Level 10: completely dead; Level 9: above 90% growth inhibition rate; Level 8: above 80% growth inhibition rate; Level 7: above 70% growth inhibition rate; Level 6: above 60% growth inhibition rate; Level 5: above 50% growth inhibition rate; Level 4: above 30% growth inhibition rate; Level 3: above 20% growth inhibition rate; Level 2: above 10% growth inhibition rate; Level 1: above 1-10% growth inhibition rate; Level 0: no effect; conditions: transplanted rice field pot test, application rate 60 g/ha, 14 days after treatment
Protocol: as §2, §3, §4

[5] = tested on: Scirpus juncoides; test: as above; design: key: Level 10: completely dead; Level 9: above 90% growth inhibition rate; Level 8: above 80% growth inhibition rate; Level 7: above 70% growth inhibition rate; Level 6: above 60% growth inhibition rate; Level 5: above 50% growth inhibition rate; Level 4: above 30% growth inhibition rate; Level 3: above 20% growth inhibition rate; Level 2: above 10% growth inhibition rate; Level 1: above 1-10% growth inhibition rate; Level 0: no effect; conditions: transplanted rice field pot test, application rate 60 g/ha, 14 days after treatment
Protocol: as §2, §3, §4

[6] = tested on: Rice; test: Transplanted rice safety evaluation; design: key: Level 10: completely dead; Level 9: above 90% growth inhibition rate; Level 8: above 80% growth inhibition rate; Level 7: above 70% growth inhibition rate; Level 6: above 60% growth inhibition rate; Level 5: above 50% growth inhibition rate; Level 4: above 30% growth inhibition rate; Level 3: above 20% growth inhibition rate; Level 2: above 10% growth inhibition rate; Level 1: above 1-10% growth inhibition rate; Level 0: no effect; conditions: transplanted 3 leaf stage japonica rice, application rate 60 g/ha, 21 days after treatment
Protocol: In addition, the rice field soil that loaded into the 1/1,000,000 ha pot was leveled to keep water storage at 3-4 cm depth. The 3 leaf stage rice (japonica rice) was transplanted at 3 cm of transplanting depth the next day. The compound of the present invention was treated by the same way after 5 days of transplantation. The fertility condition of Echinochloa, Scirpus juncoides, Bidens tripartite and Sagittaria trifolia 14 days after the treatment of the compound of the invention and the fertility condition of rice 21 days after the treatment of the compound of the invention respectively with the naked eye.

Compound	Weed control effect, Echinochloa crus-galli (activity level) [3]	Weed control effect, Monochoria vaginalis (activity level) [4]	Weed control effect, Scirpus juncoides (activity level) [5]	Rice (safety, activity level) [6]	weed control effect, Abutilon theophrasti (level) ([1]; 30 g/ha)	weed control effect, Bidens pilosa (level) ([1]; 30 g/ha)	weed control effect, Digitaria sanguinalis (level) ([1]; 30 g/ha)	weed control effect, Echinochloa crus-galli (level) ([1]; 30 g/ha)	weed control effect, Rorippa indica (level) ([1]; 30 g/ha)	weed control effect, Setaria viridis (level) ([1]; 30 g/ha)	effect on crop, corn (level) ([2]; 30 g/ha)	effect on crop, rice (level) ([2]; 30 g/ha)	effect on crop, wheat (level) ([2]; 30 g/ha)	further results
CCOc1c(C(=O)Oc2c(C(=O)c3ccc(S(C)(=O)=O)c(Cn4ccc(C)n4)c3Cl)cnn2C)cnn1C [Compound 24]	10	9 (Level 9: above 90% growth inhibition rate)	10	1 (Level 1: above 1-10% growth inhibition rate)	–	–	–	–	–	–	–	–	–	weed control effect, Abutilon theophrasti (level) ([1]; 120 g/ha): 6 (Level 6: above 60% growth inhibition rate); weed control effect, Bidens pilosa (level) ([1]; 120 g/ha): 6 (Level 6: above 60% growth inhibition rate); weed control effect, Digitaria sanguinalis (level) ([1]; 120 g/ha): 1 (Level 1: above 1-10% growth inhibition rate); weed control effect, Echinochloa crus-galli (level) ([1]; 120 g/ha): 9 (Level 9: above 90% growth inhibition rate); weed control effect, Rorippa indica (level) ([1]; 120 g/ha): 4 (Level 4: above 30% growth inhibition rate); weed control effect, Setaria viridis (level) ([1]; 120 g/ha): 2 (Level 2: above 10% growth inhibition rate); effect on crop, corn (level) ([2]; 120 g/ha): 0; effect on crop, rice (level) ([2]; 120 g/ha): 0; effect on crop, wheat (level) ([2]; 120 g/ha): 0
COCC(C)OCc1c(S(C)(=O)=O)ccc(C(=O)c2c(C)nn(C)c2OC(=O)c2cn(C)nc2C)c1Cl (stereo not shown) [Compound 36]	9 (Level 9: above 90% growth inhibition rate)	10	10	0	–	–	–	–	–	–	–	–	–	weed control effect, Abutilon theophrasti (level) ([1]; 60 g/ha): 10; weed control effect, Bidens pilosa (level) ([1]; 60 g/ha): 8 (Level 8: above 80% growth inhibition rate); weed control effect, Digitaria sanguinalis (level) ([1]; 60 g/ha): 10; weed control effect, Echinochloa crus-galli (level) ([1]; 60 g/ha): 10; weed control effect, Rorippa indica (level) ([1]; 60 g/ha): 10; weed control effect, Setaria viridis (level) ([1]; 60 g/ha): 7 (Level 7: above 70% growth inhibition rate); effect on crop, corn (level) ([2]; 60 g/ha): 0; effect on crop, rice (level) ([2]; 60 g/ha): 1 (Level 1: above 1-10% growth inhibition rate); effect on crop, wheat (level) ([2]; 60 g/ha): 0
Cc1nn(C)cc1C(=O)Oc1c(C(=O)c2ccc(S(C)(=O)=O)c(COCC(F)F)c2Cl)cnn1C [Compound 40]	10	9 (Level 9: above 90% growth inhibition rate)	9 (Level 9: above 90% growth inhibition rate)	0	7 (Level 7: above 70% growth inhibition rate)	7 (Level 7: above 70% growth inhibition rate)	10	10	10	9 (Level 9: above 90% growth inhibition rate)	0	5 (Level 5: above 50% growth inhibition rate)	0	–
CCOCc1c(S(C)(=O)=O)ccc(C(=O)c2c(C3CC3)nn(C)c2OC(=O)c2cn(C)nc2C)c1Cl [Compound 46]	8 (Level 8: above 80% growth inhibition rate)	9 (Level 9: above 90% growth inhibition rate)	9 (Level 9: above 90% growth inhibition rate)	0	7 (Level 7: above 70% growth inhibition rate)	7 (Level 7: above 70% growth inhibition rate)	10	10	10	10	1 (Level 1: above 1-10% growth inhibition rate)	3 (Level 3: above 20% growth inhibition rate)	0	–
COCc1c(S(C)(=O)=O)ccc(C(=O)c2c(C3CC3)nn(C)c2OC(=O)c2cn(C)nc2C)c1Cl [Compound 51]	10	10	9 (Level 9: above 90% growth inhibition rate)	0	7 (Level 7: above 70% growth inhibition rate)	7 (Level 7: above 70% growth inhibition rate)	10	10	10	10	4 (Level 4: above 30% growth inhibition rate)	3 (Level 3: above 20% growth inhibition rate)	0	–
C#CCOCc1c(S(C)(=O)=O)ccc(C(=O)c2c(C3CC3)nn(C)c2OC(=O)c2cnn(C)c2)c1Cl [Compound 60]	10	10	10	2 (Level 2: above 10% growth inhibition rate)	6 (Level 6: above 60% growth inhibition rate)	4 (Level 4: above 30% growth inhibition rate)	7 (Level 7: above 70% growth inhibition rate)	10	7 (Level 7: above 70% growth inhibition rate)	7 (Level 7: above 70% growth inhibition rate)	0	5 (Level 5: above 50% growth inhibition rate)	0	–
CCOCCOCc1c(S(C)(=O)=O)ccc(C(=O)c2cnn(C)c2OC(=O)c2cnn(C)c2)c1Cl [Compound 68]	7 (Level 7: above 70% growth inhibition rate)	10	10	1 (Level 1: above 1-10% growth inhibition rate)	7 (Level 7: above 70% growth inhibition rate)	7 (Level 7: above 70% growth inhibition rate)	7 (Level 7: above 70% growth inhibition rate)	10	10	9 (Level 9: above 90% growth inhibition rate)	0	3 (Level 3: above 20% growth inhibition rate)	0	–
